Assay results reported in US9834558B2, “Substituted bridged urea analogs as sirtuin modulators” (GLAXOSMITHKLINE LLC, priority 2013, dated 2017).
Counter-ions that a name gives are not always drawn. Like-named read-outs stand apart in the source and are kept apart here.

Molecular target: T1, SIRT1 (Homo sapiens, UniProt Q96EB6)
T1 sequence (Q96EB6 1-747): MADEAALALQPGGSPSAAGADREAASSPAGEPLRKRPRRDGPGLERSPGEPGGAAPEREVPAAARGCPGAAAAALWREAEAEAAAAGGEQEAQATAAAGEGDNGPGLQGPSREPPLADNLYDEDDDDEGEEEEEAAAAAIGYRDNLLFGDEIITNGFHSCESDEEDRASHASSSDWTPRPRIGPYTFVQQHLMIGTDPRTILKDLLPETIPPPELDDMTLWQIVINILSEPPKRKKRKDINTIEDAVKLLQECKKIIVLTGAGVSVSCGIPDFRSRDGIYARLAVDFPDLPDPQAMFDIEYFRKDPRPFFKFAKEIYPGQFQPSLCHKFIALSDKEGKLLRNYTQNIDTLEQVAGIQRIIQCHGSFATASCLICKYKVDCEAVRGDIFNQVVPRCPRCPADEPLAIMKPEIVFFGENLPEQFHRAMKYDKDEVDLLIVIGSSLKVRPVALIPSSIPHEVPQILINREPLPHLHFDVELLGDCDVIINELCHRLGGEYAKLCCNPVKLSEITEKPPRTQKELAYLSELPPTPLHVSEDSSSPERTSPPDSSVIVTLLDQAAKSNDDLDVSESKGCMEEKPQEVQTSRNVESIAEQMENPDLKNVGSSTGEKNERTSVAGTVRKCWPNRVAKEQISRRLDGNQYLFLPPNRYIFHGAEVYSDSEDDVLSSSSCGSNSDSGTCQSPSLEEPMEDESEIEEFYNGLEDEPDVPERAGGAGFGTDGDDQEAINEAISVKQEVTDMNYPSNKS
Experiment: Trp mass spectrometry assay of SIRT1 activation
Assay type: biochemical
Settings: for TRP Activity (EC1.5): EC1.5 = concentration that results in 150% activation of SIRT1
Outline: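 N-terminal His-tagged human SIRT1 (10 nM, E. coli BL21(DE3)) with 0.5 μM Ac-RHKK(Ac)W-NH2 peptide and 120 μM βNAD+, 25 min at 25 °C in HEPES pH 7.5, formic acid stop. OAADPR or deacetylated peptide quantified by mass spectrometry; EC1.5 (50% activity increase over control) and Percent Maximum Activation reported.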

[1] = Trp peptide assay, maximum activity relative to control (100%), read-out: TRP MAX RESP (percent maximum fold activation)
[2] = Trp mass spectrometry assay, EC1.5 = concentration of test compound that results in 150% activation of SIRT1
[3] = Trp mass spectrometry assay, concentration of test compound giving 150% activation of SIRT1
[4] = concentration giving 150% activation of SIRT1, Trp peptide substrate
[5] = Trp peptide substrate, concentration giving 150% activation of SIRT1

Row | SMILES | TRP Activity (EC1.5) (Trp peptide assay) | Emax [1] [%] | Tryp AVG EC1.5 (μM) [2] | also measured
1 | COC(=O)CNC(=O)c1ccc2c(n1)N(C(=O)Nc1ccccn1)[C@H]1CCN2C1 [methyl 2-{[(9S)-8-[(pyridin-2-yl)carbamoyl]-1,6,8-triazatricyclo[7.2.1.0^{2,7}]dodeca-2(7),3,5-trien-5-yl]formamido}acetate] | B (B (EC1.5 1-25 μM)) | > 150 | – | –
2 | CC(=O)N1CCCN(c2ccc3c(n2)N(C(=O)Nc2ccncn2)[C@H]2CCCN3C2)CC1 [Example 434] | – | – | C (C (EC1.5>25 μM)) | –
3 | Cc1cc(C)c(-c2ccc3c(n2)N(C(=O)Nc2cnccn2)[C@H]2CCN3C2)cn1 [(9S)-5-(4,6-dimethylpyridin-3-yl)-9-N-(pyrazin-2-yl)-1,6,8-triazatricyclo[7.2.1.0 {2,7}]dodeca-2(7),3,5-triene-8-carboxamide] | C (C (EC1.5>25 μM)) | < 150 | – | –
4 | N#Cc1cccc(-c2ccc3c(n2)N(C(=O)Nc2cncc(F)c2)[C@H]2CCCN3C2)c1 [Example 353] | – | – | – | Tryp AVG EC1.5 (μM) [3]: A (A (EC1.5<1 μM))
5 | O=C(Nc1ccncc1)N1c2nc(-c3cccc(C(F)(F)F)c3)ccc2N2CC[C@H]1C2 [Example 817] | – | – | – | Tryp AVG EC1.5 (μM) [4]: A (A (EC1.5<1 μM))
6 | CC(C)(C)OC(=O)NCc1ccc(NC(=O)N2c3nc(-c4cccc(C(F)(F)F)c4)ccc3N3CCC[C@H]2C3)cc1 [Example 445] | – | – | A (A (EC1.5<1 μM)) | –
7 | CCNC(=O)c1ccc2c(n1)N(C(=O)Nc1ccccn1)[C@H]1CCN2C1 [(9S)-5-N-ethyl-8-N-(pyridin-2-yl)-1,6,8-triazatricyclo[7.2.1.0 {2,7}]dodeca-2(7),3,5-triene-5,8-dicarboxamide] | A (A (EC1.5<1 μM)) | > 150 | – | –
8 | O=C(NC1CCOCC1)c1ccc2c(n1)N(C(=O)Nc1ccccn1)[C@H]1CCN2C1 [(9S)-5-N-(oxan-4-yl)-8-N-(pyridin-2-yl)-1,6,8-triazatricyclo[7.2.1.0 {2,7}]dodeca-2(7),3,5-triene-5,8-dicarboxamide] | B (B (EC1.5 1-25 μM)) | > 150 | – | –
9 | O=C(Nc1cncc(Br)c1)N1c2nc(-c3cccc(C(F)(F)F)c3)ccc2N2CC[C@H]1C2 [Example 542] | – | – | A (A (EC1.5<1 μM)) | –
10 | Cc1cncc(-c2ccc3c(n2)N(C(=O)Nc2cncc(F)c2)[C@H]2CCCN3C2)c1 [Example 509] | – | – | A (A (EC1.5<1 μM)) | –
11 | Cc1ccc(-c2ccc3c(n2)N(C(=O)Nc2ccccn2)[C@H]2CCCN3C2)cn1 [Example 465] | – | – | B (B (EC1.5 1-25 μM)) | –
12 | O=C(Nc1cnccn1)N1c2nc(-c3cnn(C4CC4)c3)ccc2N2CC[C@H]1C2 [(9S)-5-(1-cyclopropyl-1H-pyrazol-4-yl)-N-(pyrazin-2-yl)-1,6,8-triazatricyclo[7.2.1.0 {2,7}]dodeca-2(7),3,5-triene-8-carboxamide] | A (A (EC1.5<1 μM)) | > 150 | – | –
13 | Cc1ccncc1-c1ccc2c(n1)N(C(=O)Nc1cncc(F)c1)[C@H]1CCCN2C1 [Example 510] | – | – | B (B (EC1.5 1-25 μM)) | –
14 | O=C(NCCCc1ccncc1)N1c2nc(-c3cccc(C(F)(F)F)c3)ccc2N2CC[C@H]1C2 [Example 633] | – | – | – | Tryp AVG EC1.5 (μM) [4]: B (B (EC1.5 1-25 μM))
15 | O=C(Nc1ccnc(OC[C@@H](O)CO)c1)N1c2nc(-c3cccc(C(F)(F)F)c3)ccc2N2CC[C@H]1C2 [(9S)-N-{2-[(2S)-2,3-dihydroxypropoxy]pyridin-4-yl}-5-[3-(trifluoromethyl)phenyl]-1,6,8-triazatricyclo[7.2.1.0 {2,7}]dodeca-2,4,6-triene-8-carboxamide] | A (A (EC1.5<1 μM)) | > 150 | – | –
16 | O=C(Nc1cccnn1)N1c2nc(-c3cccnc3)ccc2N2CCC[C@H]1C2 [Example 457] | – | – | B (B (EC1.5 1-25 μM)) | Emax (Trp mass spectrometry assay, percent maximum fold activation of SIRT1, read-out: Tryp % Fold Act): > 150%
17 | NCc1cn(-c2cccc(NC(=O)N3c4nc(-c5cccc(C(F)(F)F)c5)ccc4N4CC[C@H]3C4)c2)nn1 [Example 606] | – | – | A (A (EC1.5<1 μM)) | –
18 | O=C(Nc1cnccn1)N1c2nc(-c3cccc(Cl)c3)ccc2N2CC[C@H]1C2 [Example 101] | – | – | – | Tryp AVG EC1.5 (μM) [5]: A (A (EC1.5<1 μM))
19 | Cc1cncc(NC(=O)N2c3nc(-c4cccc(C(F)(F)F)c4)ccc3N3C[C@@H](O)[C@H]2C3)c1 [Example 670] | – | – | – | Tryp AVG EC1.5 (μM) [4]: A (A (EC1.5<1 μM))

Row | SMILES | TRP Activity (EC1.5) (Trp peptide assay) | Emax [1] [%] | Tryp AVG EC1.5 (μM) [2] | also measured
20 | Cc1cc(-c2ccc3c(n2)N(C(=O)Nc2cnccn2)[C@H]2CCCN3C2)ccn1 [(9S)-5-(2-methylpyridin-4-yl)-N-(pyrazin-2-yl)-1,6,8-triazatricyclo[7.3.1.0 {2,7}]trideca-2(7),3,5-triene-8-carboxamide] | A (A (EC1.5<1 μM)) | > 150 | – | –
21 | Cc1cc(-c2ccc3c(n2)N(C(=O)Nc2cccc4nccnc24)[C@H]2CCN3C2)ccn1 [(9S)-5-(2-methylpyridin-4-yl)-N-(quinoxalin-5-yl)-1,6,8-triazatricyclo[7.2.1.0 {2,7}]dodeca-2,4,6-triene-8-carboxamide] | A (A (EC1.5<1 μM)) | > 150 | – | –
22 | Cc1n[nH]c(C)c1-c1ccc2c(n1)N(C(=O)Nc1cccnc1)[C@H]1CCN2C1 [Example 525] | – | – | B (B (EC1.5 1-25 μM)) | –
23 | Cc1cncc(NC(=O)N2c3nc(-c4cccc(Cl)c4)ccc3N3C[C@@H](O)[C@H]2C3)c1 [Example 677] | – | – | – | Tryp AVG EC1.5 (μM) [4]: B (B (EC1.5 1-25 μM))
24 | N#Cc1cncc(-c2ccc3c(n2)N(C(=O)Nc2cnccn2)[C@H]2CCN3C2)c1 [Example 459] | – | – | A (A (EC1.5<1 μM)) | –
25 | Cc1cc(-c2ccc3c(n2)N(C(=O)NCCc2ccccn2)[C@H]2CCN3C2)ccn1 [(9S)-5-(2-methylpyridin-4-yl)-N-[2-(pyridin-2-yl)ethyl]-1,6,8-triazatricyclo[7.2.1.0 {2,7}]dodeca-2(7),3,5-triene-8-carboxamide hydrochloride] | C (C (EC1.5>25 μM)) | < 150 | – | –
26 | O=C(Nc1ccccn1)N1c2nc(-c3cncc(F)c3)ccc2N2CCC[C@H]1C2 [Example 470] | – | – | A (A (EC1.5<1 μM)) | –
27 | O=C1OCc2ccc(NC(=O)N3c4nc(-c5cccc(C(F)(F)F)c5)ccc4N4CC[C@H]3C4)cc21 [Example 93] | – | – | – | Tryp AVG EC1.5 (μM) [5]: A (A (EC1.5<1 μM))
28 | NC(=O)c1ccc(NC(=O)N2c3nc(-c4cccc(C(F)(F)F)c4)ccc3N3CC[C@H]2C3)cc1 [Example 659] | – | – | – | Tryp AVG EC1.5 (μM) [4]: A (A (EC1.5<1 μM))
29 | Cc1ccc(-c2cc(C)c3c(n2)N(C(=O)Nc2cccnc2)[C@H]2CCN3C2)cn1 [(9S)-3-methyl-5-(6-methylpyridin-3-yl)-N-(pyridin-3-yl)-1,6,8-triazatricyclo[7.2.1.0^{2,7}]dodeca-2,4,6-triene-8-carboxamide] | B (B (EC1.5 1-25 μM)) | > 150 | – | –
30 | O=C(Nc1ccccn1)N1c2nc(-c3cccc(C(F)(F)F)c3F)ccc2N2CC[C@H]1C2 [Example 334] | – | – | – | Tryp AVG EC1.5 (μM) [3]: B (B (EC1.5 1-25 μM))
31 | Cn1nccc1-c1ccc2c(n1)N(C(=O)Nc1cccnc1)[C@H]1CCN2C1 [Example 524] | – | – | B (B (EC1.5 1-25 μM)) | –
32 | Cc1ncc(-c2ccc3c(n2)N(C(=O)Nc2cnccn2)[C@H]2CCN3C2)o1 [(9S)-5-(2-methyl-1,3-oxazol-5-yl)-N-(pyrazin-2-yl)-1,6,8-triazatricyclo[7.2.1.0 {2,7}]dodeca-2(7),3,5-triene-8-carboxamide] | B (B (EC1.5 1-25 μM)) | > 150 | – | –
33 | CC(C)n1cc(-c2ccc3c(n2)N(C(=O)Nc2cccnc2)[C@H]2CCN3C2)cn1 [Example 494] | – | – | B (B (EC1.5 1-25 μM)) | –
34 | CN(C)c1cccc(-c2ccc3c(n2)N(C(=O)Nc2cnccn2)[C@H]2CCCN3C2)c1 [Example 403] | – | – | – | Tryp AVG EC1.5 (μM) [3]: A (A (EC1.5<1 μM))
35 | Cc1ccc(-c2ccc3c(n2)N(C(=O)Nc2cncc(C)n2)[C@H]2CCN3C2)cn1 [(9S)-N-(6-methylpyrazin-2-yl)-5-(6-methylpyridin-3-yl)-1,6,8-triazatricyclo[7.2.1.0 {2,7}]dodeca-2,4,6-triene-8-carboxamide] | B (B (EC1.5 1-25 μM)) | > 150 | – | –
36 | C[C@@H]1COCCN1c1ccc2c(n1)N(C(=O)Nc1cccnc1)[C@H]1CCN2C1 [(9S)-5-[(3R)-3-methylmorpholin-4-yl]-N-(pyridin-3-yl)-1,6,8-triazatricyclo[7.2.1.0 {2,7}]dodeca-2(7),3,5-triene-8-carboxamide] | B (B (EC1.5 1-25 μM)) | > 150 | – | –
37 | O=C(Nc1ccccn1)N1c2nc(-c3cccc(C(F)(F)F)n3)ccc2N2CC[C@H]1C2 [Example 336] | – | – | – | Tryp AVG EC1.5 (μM) [3]: B (B (EC1.5 1-25 μM))
